Assay results as given in ChEMBL document CHEMBL1154593, “Insights into the inhibition of xanthine oxidase by curcumin” (Bioorg Med Chem Lett, 2009).

Biological target: Xanthine dehydrogenase/oxidase (Homo sapiens, UniProt P47989)
Experiment: Inhibition of xanthine oxidase

Chain of Xanthine dehydrogenase/oxidase (P47989 whole entry): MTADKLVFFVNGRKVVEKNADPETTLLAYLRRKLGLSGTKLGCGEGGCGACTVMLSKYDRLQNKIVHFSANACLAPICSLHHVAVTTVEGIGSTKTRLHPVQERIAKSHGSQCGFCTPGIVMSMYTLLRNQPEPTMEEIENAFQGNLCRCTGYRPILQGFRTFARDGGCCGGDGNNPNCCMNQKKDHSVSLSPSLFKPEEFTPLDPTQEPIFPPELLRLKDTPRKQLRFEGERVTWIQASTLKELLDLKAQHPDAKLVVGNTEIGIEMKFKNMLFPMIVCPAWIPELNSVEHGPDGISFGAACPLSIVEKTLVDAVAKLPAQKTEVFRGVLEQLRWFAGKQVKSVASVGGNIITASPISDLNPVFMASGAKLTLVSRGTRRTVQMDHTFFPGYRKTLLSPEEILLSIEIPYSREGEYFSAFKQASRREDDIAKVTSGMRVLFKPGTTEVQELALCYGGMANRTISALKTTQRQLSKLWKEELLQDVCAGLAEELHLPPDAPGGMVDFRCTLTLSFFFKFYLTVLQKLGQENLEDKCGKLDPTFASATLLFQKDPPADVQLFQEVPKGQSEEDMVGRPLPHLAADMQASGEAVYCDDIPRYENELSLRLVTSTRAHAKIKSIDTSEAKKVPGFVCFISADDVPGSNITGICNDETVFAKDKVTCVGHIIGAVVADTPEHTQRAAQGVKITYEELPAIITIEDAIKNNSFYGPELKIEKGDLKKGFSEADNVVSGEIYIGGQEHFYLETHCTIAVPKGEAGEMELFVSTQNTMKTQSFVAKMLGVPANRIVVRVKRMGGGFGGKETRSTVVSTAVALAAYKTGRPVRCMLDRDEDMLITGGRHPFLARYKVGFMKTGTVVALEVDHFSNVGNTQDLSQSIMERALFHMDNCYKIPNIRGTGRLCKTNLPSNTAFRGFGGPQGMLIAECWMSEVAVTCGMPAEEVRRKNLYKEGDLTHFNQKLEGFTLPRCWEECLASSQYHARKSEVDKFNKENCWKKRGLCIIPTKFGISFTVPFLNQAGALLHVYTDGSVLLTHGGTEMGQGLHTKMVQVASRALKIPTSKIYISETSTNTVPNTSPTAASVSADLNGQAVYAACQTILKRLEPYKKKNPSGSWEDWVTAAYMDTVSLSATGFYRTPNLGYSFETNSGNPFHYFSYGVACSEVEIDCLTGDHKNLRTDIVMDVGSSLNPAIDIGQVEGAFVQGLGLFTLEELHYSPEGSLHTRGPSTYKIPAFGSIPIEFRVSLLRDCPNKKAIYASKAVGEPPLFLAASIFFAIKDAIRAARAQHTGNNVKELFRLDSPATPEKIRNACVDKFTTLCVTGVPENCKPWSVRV

COc1cc(/C=C/C=O)ccc1O [CONIFERYL ALDEHYDE]
Ki: 93.9 µM
